Assay results as given in patent publication US12060570B2, “Vector-free intracellular delivery by reversible permeabilisation” (Avectas Limited, priority 2016, dated 2024).

Tests used:
Assay type in all cases: cell-based
A549 cells [1] = assay: Endocytosis inhibitor pretreatment, EGFP mRNA expression; conditions: n=3; for Expression of EGFP mRNA delivered by soluporation in the presence of inhibitor: pretreatment: Dynasore 4 mM, chloropromazine 20 μM, Nystatin 20 μg/ml, EIPA 100 μM
Method: To test the contribution of alternate uptake mechanisms such as active pathways and internalization in endocytotic vesicles, A549 cells were pretreated with Dynasore (4 mM) or chloropromazine (20 μM) to inhibit clathrin-mediated endocytosis or Nystatin (20 μg/ml) or EIPA (100 μM) to inhibit caveolar-mediated endocytosis and micropinocytosis respectively.

A549 cells [2] = assay: Resealing of plasma membrane after permeabilization, PI uptake by flow cytometry; conditions: delivery solution without cargo, PI 100 μg/ml, n=3
Method: It was noted that the delivery method was very gentle on cells with little if any cell death or damage evident. […] To examine the rate of recovery of the cell membrane after permeabilization, delivery solution was applied to A549 cells in the absence of cargo. At subsequent time points (0 to 182.5 min), this delivery solution was removed and 50 μl PBS containing propidium iodide (PI) (100 μg/ml) is added. After 2 min incubation, the PI solution was removed and the cells were harvested. PI uptake was analysed by flow cytometry. For basal levels of PI uptake, untreated cells received 50 μl PI in PBS. […] After 6 minutes there is no further uptake. Thus not only do the cells load within 2 minutes of exposure to the delivery solution, but the membrane has effectively recovered its integrity within 6 minutes of beginning the procedure.

Jurkat cells = assay: Delivery of fluorescently-labelled proteins to Jurkat monolayer on transwell insert, flow cytometry; conditions: soluporation
Method: In order to form a monolayer of suspension cells that would allow the cells to be presented optimally to the spray, a transwell insert system was used. Cells were seeded at 1×10^6 in 400 μl per insert and the media was removed by placing the transwell insert (Greiner bio-one; CAT #655640; 12 Well ThinCert; PET 0.4 μm) into a device that allowed a vacuum to be applied to the bottom of the insert (between −0.5 bar and −0.65 bar; see FIGS. 14A, B, C). Once the media was removed the remaining cells formed a monolayer to which the spray can be applied. Non-adherent cells such as PBMCs, primary T-cells, or a cell line, e.g., Jurkat T cells, were added to the insert system, the vacuum applied and the insert placed into a 12 well plate and sprayed with delivery solution (10 lid) containing test payload such as either fluorescently-labelled beta-lactoglobulin (BLG), bovine serum albumin (BSA) or ovalburnin (OVA). Stop solution (50 μl) was applied after a 2 minute incubation and 30 s later normal media (100 μl) was applied.

Row | Compound | Expression of EGFP mRNA delivered by soluporation in the presence of inhibitor (A549 cells [1]) | other results
1 | O=C(N/N=C/c1ccc(O)c(O)c1)c1cc2ccccc2cc1O [Dynasore] | remained unchanged | GFP expression in lipofected cells (Lipofectamine 2000) (A549 cells [1]; Dynasore treated): significantly reduced
2 | CCN(c1nc(N)c(C(=O)NC(=N)N)nc1Cl)C(C)C [EIPA] | remained unchanged | –
3 | C[C@@H]1[C@H](O)[C@@H](C)/C=C/C=C/CC/C=C/C=C/C=C/C=C/C(O[C@H]2O[C@H](C)[C@@H](O)[C@H](N)[C@@H]2O)CC2O[C@](O)(CC(O)C(O)CCC(O)CC(O)CC(O)CC(=O)O[C@H]1C)CC(O)C2C(=O)O (some centres unmarked) [Nystatin] | remained unchanged | –
4 | CN(C)CCCN1c2ccccc2Sc2ccc(Cl)cc21 [chloropromazine] | remained unchanged | –
5 | CC[N+](C)(CC)CCC[n+]1c(-c2ccccc2)c2cc(N)ccc2c2ccc(N)cc21.[I-].[I-] [propidium iodide] | – | time post treatment over which cells remain permeable to PI before resealing (A549 cells [2]): ≤ 6 min
6 | bovine serum albumin [BSA] | – | Expression levels (fluorescently-labelled protein) (Jurkat cells): 28.5%
7 | ovalbumin | – | Expression levels (fluorescently-labelled protein) (Jurkat cells): 15.3%
